Results taken from patent publication US10899769B2, “Imidazopiperazinone inhibitors of transcription activating proteins” (Board of Regents, The University of Texas System, priority 2018, dated 2021).

What was measured:
[1] = molecular target: GST-CBP(1081-1197) bromodomain (Homo sapiens (Human), UniProt Q92793); test: CBP AlphaScreen Assay; details: binding to biotin-H4(1-21) Ac-K5/8/12/16
In short: (§1)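 AlphaScreen binding of GST-bromodomain to biotin-H4(1-21) Ac-K5/8/12/16: 5 nM CBP with 20 nM peptide, or 2.5 nM BRD4 with 10 nM peptide, in 50 mM HEPES 7.5, […], 1 mM TCEP, 0.003% Tween-20. Compound preincubated 30 min, then beads 2 h, room temperature. IC50 from variable-slope fit.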

BRD4(49-170) bromodomain = BRD4(49-170) bromodomain (Homo sapiens (Human), UniProt O60885); test: BRD4 AlphaScreen Assay; details: binding to biotin-H4(1-21) Ac-K5/8/12/16
In short: as §1

Sequence of GST-CBP(1081-1197) bromodomain (Q92793 1081-1197): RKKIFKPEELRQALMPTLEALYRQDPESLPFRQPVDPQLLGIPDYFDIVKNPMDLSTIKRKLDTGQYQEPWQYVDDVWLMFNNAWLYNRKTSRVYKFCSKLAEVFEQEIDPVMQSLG

| Compound | IC50 [1] [µM] | IC50 (BRD4(49-170) bromodomain) [µM] |
| --- | --- | --- |
| CC1C(=O)N(C)Cc2c(-c3c(F)ccc4cc(-c5ccn(C)n5)ncc34)nc(C3CCOCC3)n21 (single isomer, unassigned) [Example 90a, 1-(7-fluoro-3-(1-methyl-1H-pyrazol-3-yl)isoquinolin-8-yl)-5,7-dimethyl-3-(tetrahydro-2H-pyran-4-yl)-7,8-dihydroimidazo[1,5a] pyrazin-6(5H)-one] | 1.01 | 25 |
| Cc1ncc(-c2cc3cccc(-c4nc(C5CCOCC5)n5c4CN(C)C(=O)C5C)c3cn2)s1 (single isomer, unassigned) [Example 31b, 5,7-Dimethyl-1-(3-(2-methylthiazol-5-yl)isoquinolin-8-yl)-3-(tetrahydro-2H-pyran-4-yl)-7,8-dihydroimidazo[1,5-a]pyrazin-6(5H)-one] | 0.002 | 0.106 |
| CC1C(=O)N(C)Cc2c(-c3cccc4cc(-c5ccn(C)n5)ncc34)nc(C3CCOCC3)n21 (stereo not shown) [Example 86, 5,7-dimethyl-1-(3-(1-methyl-1H-pyrazol-3-yl)isoquinolin-8-yl)-3-(tetrahydro-2H-pyran-4-yl)-7,8-dihydroimidazo[1,5-a] pyrazin-6(5H)-one] | 0.001 | 0.232 |
| CC1C(=O)N(C)Cc2c(-c3cccc4nc(-c5cn(C)cn5)c(C(F)F)cc34)nc(C3CC3)n21 (stereo not shown) [Example 69, 3-cyclopropyl-1-(3-(difluoromethyl)-2-(1-methyl-1H-imidazol-4-yl)quinolin-5-yl)-5,7-dimethyl-7,8-dihydroimidazo[1,5-a] pyrazin-6(5H)-one] | 0.013 | 1.53 |
| CC1C(=O)N(C)Cc2c(-c3ccc4c(cnn4C)c3)nc(C3CC3)n21 (stereo not shown) [Example 50, 3-cyclopropyl-5,7-dimethyl-1-(1-methyl-1H-indazol-5-yl)-7,8-dihydroimidazo[1,5-a] pyrazin-6(5H)-one] | 0.155 | 1.18 |
| Cc1ncc(-c2nc3cccc(-c4nc(C5CC5)n5c4CN(C)C(=O)C5C)c3cc2C(F)F)s1 (stereo not shown) [Example 68, 3-cyclopropyl-1-(3-(difluoromethyl)-2-(2-methylthiazol-5-yl)quinolin-5-yl)-5,7-dimethyl-7,8-dihydroimidazo[1,5-a] pyrazin-6(5H)-one] | 0.005 | 0.163 |
| CC1C(=O)N(C)Cc2c(-c3cccc4cc(N5CCOCC5)ncc34)nc(C3CCOCC3)n21 (single isomer, unassigned) [Example 16b, 5,7-Dimethyl-1-(3-morpholinoisoquinolin-8-yl)-3-(tetrahydro-2H-pyran-4-yl)-7,8-dihydroimidazo[1,5-a]pyrazin-6(5H)-one] | 0.003 | 0.353 |
| CC1C(=O)N(C)Cc2c(-c3cccc4nc(-c5cnn(C)c5)c(C(F)F)cc34)nc(C3CN(CCO)C3)n21 (stereo not shown) [Example 28, 1-(3-(Difluoromethyl)-2-(1-methyl-1H-pyrazol-4-yl)quinolin-5-yl)-3-(1-(2-hydroxyethyl)azetidin-3-yl)-5,7-dimethyl-7,8-dihydroimidazo[1,5-a]pyrazin-6(5H)-one] | 0.123 | 9.37 |
| C[C@@H]1CN(C)C(=O)c2c(-c3cccc4nc(-c5cnn(C)c5)c(C(F)F)cc34)nc(C3CCOCC3)n21 [Example 5a, (R)-1-(3-(Difluoromethyl)-2-(1-methyl-1H-pyrazol-4-yl)quinolin-5-yl)-5,7-dimethyl-3-(tetrahydro-2H-pyran-4-yl)-7,8-dihydroimidazo[1,5-a]pyrazin-(5H)-one] | 0.004 | 0.353 |
| C[C@H]1C(=O)N(C)Cc2c(-c3cccc4cc(-c5cnn(C)c5)ncc34)nc(C3CC3)n21 [Example 111a, (S)-3-cyclopropyl-5,7-dimethyl-1-(3-(1-methyl-1H-pyrazol-4-yl)isoquinolin-8-yl)-7,8-dihydroimidazo[1,5-a] pyrazin-6(5H)-one] | 0.51 | 25 |
| CC1C(=O)N(C)Cc2c(-c3cccc4cc(-c5nn[nH]n5)ncc34)nc(C3CC3)n21 (stereo not shown) [Example 17, 1-(3-(2H-Tetrazol-5-yl)isoquinolin-8-yl)-3-cyclopropyl-5,7-dimethyl-7,8-dihydroimidazo[1,5-a]pyrazin-6(5H)-one] | 0.002 | 3.03 |
| CN1Cc2c(-c3cccc4nc(-c5cnn(C)c5)c(C#N)cc34)nc(C3CCOCC3)n2CC1=O [Example 92, 2-(1-methyl-1H-pyrazol-4-yl)-5-(7-methyl-6-oxo-3-(tetrahydro-2H-pyran-4-yl)-5,6,7,8-tetrahydroimidazo[1,5-a]pyrazin-1-yl)quinoline-3-carbonitrile] | 0.063 | 25 |
| CC1C(=O)N(C)Cc2c(-c3cccc4cc(-c5nsc(=O)[nH]5)ncc34)nc(C3CC3)n21 (stereo not shown) [Example 47, 3-(8-(3-Cyclopropyl-5,7-dimethyl-6-oxo-5,6,7,8-tetrahydroimidazo[1,5-a]pyrazin-1-yl)isoquinolin-3-yl)-1,2,4-thiadiazol-5(4H)-one] | 0.002 | 1.46 |
| Cc1nn(C)cc1-c1cc2cccc(-c3nc(C4CCOCC4)n4c3CN(C)C(=O)C4C)c2cn1 (stereo not shown) [Example 87, 1-(3-(1,3-dimethyl-1H-pyrazol-4-yl)isoquinolin-8-yl)-5,7-dimethyl-3-(tetrahydro-2H-pyran-4-yl)-7,8-dihydroimidazo[1,5-a] pyrazin-6(5H)-one] | 0.077 | 10.7 |
| CNC(=O)N1CC(c2nc(-c3cccc4nc(-c5cnn(C)c5)c(C(F)F)cc34)c3n2C(C)C(=O)N(C)C3)C1 (stereo not shown) [Example 24, 3-(1-(3-(Difluoromethyl)-2-(1-methyl-1H-pyrazol-4-yl)quinolin-5-yl)-5,7-dimethyl-6-oxo-5,6,7,8-tetrahydroimidazo[1,5-a]pyrazin-3-yl)-N-methylazetidine-1-carboxamide] | 0.081 | 4.89 |
| Cc1ncc(-c2cc3ccc(C)c(-c4nc(C5CCOCC5)n5c4CN(C)C(=O)C5C)c3cn2)s1 (single isomer, unassigned) [Example 38a] | 0.008 | 1.81 |
| Cc1cn(-c2cc3cccc(-c4nc(C5CCOCC5)n5c4CN(C)C(=O)C5C)c3cn2)cn1 (single isomer, unassigned) [Example 30a, 5,7-dimethyl-1-(3-(4-methyl-1H-imidazol-1-yl)isoquinolin-8-yl)-3-(tetrahydro-2H-pyran-4-yl)-7,8-dihydroimidazo[1,5-a]pyrazin-6(5H)-one] | 0.001 | 0.096 |
| Cc1nn(C)cc1-c1cc2ccc(F)c(-c3nc(C4CCOCC4)n4c3CN(C)C(=O)C4C)c2cn1 (single isomer, unassigned) [Example 91a, 1-(3-(1,3-dimethyl-1H-pyrazol-4-yl)-7-fluoroisoquinolin-8-yl)-5,7-dimethyl-3-(tetrahydro-2H-pyran-4-yl)-7,8-dihydroimidazo[1,5-a] pyrazin-6(5H)-one] | 3.61 | 25 |
| CC1C(=O)N(C)Cc2c(-c3cccc4cc(N5CCOCC5)ncc34)nc(C3CCOCC3)n21 (single isomer, unassigned) [Example 16a, 5,7-Dimethyl-1-(3-morpholinoisoquinolin-8-yl)-3-(tetrahydro-2H-pyran-4-yl)-7,8-dihydroimidazo[1,5-a]pyrazin-6(5H)-one] | 1.12 | ≥ 25 |
| CN1Cc2c(N3CCCc4cc(-c5cnn(C)c5)c(C(F)F)cc43)nc(C3CC3)n2CC1=O [Example 106, 3-cyclopropyl-1-(7-(difluoromethyl)-6-(1-methyl-1H-pyrazol-4-yl)-3,4-dihydroquinolin-1(2H)-yl)-7-methyl-7,8-dihydroimidazo[1,5-a] pyrazin-6(5H)-one] | 0.009 | 5.7 |
| CC1C(=O)N(C)Cc2c(-c3cccc4cc(C5CCOCC5)ncc34)nc(C3CC3)n21 (stereo not shown) [Example 58, 3-cyclopropyl-5,7-dimethyl-1-(3-(tetrahydro-2H-pyran-4-yl)isoquinolin-8-yl)-7,8-dihydroimidazo[1,5-a] pyrazin-6(5H)-one] | 0.002 | 0.188 |
| CC1C(=O)N(C)Cc2c(-c3cccc4nc(-c5cnn(C)c5)c(C#N)cc34)nc(C3CCOCC3)n21 (single isomer, unassigned) [Example 8b, 5-(5,7-dimethyl-6-oxo-3-(tetrahydro-2H-pyran-4-yl)-5,6,7,8-tetrahydroimidazo[1,5-a]pyrazin-1-yl)-2-(1-methyl-1H-pyrazol-4-yl)quinoline-3-carbonitrile] | 0.002 | 0.332 |
| CC1C(=O)N(C)Cc2c(-c3cccc4nc(-c5cnn(C)c5)c(C(F)F)cc34)nc(C3CN(CCF)C3)n21 (stereo not shown) [Example 25, 1-(3-(Difluoromethyl)-2-(1-methyl-1H-pyrazol-4-yl)quinolin-5-yl)-3-(1-(2-fluoroethyl)azetidin-3-yl)-5,7-dimethyl-7,8-dihydroimidazo[1,5-a]pyrazin-6(5H)-one] | 0.026 | 11.6 |
| CN1Cc2c(-c3cccc4nc(-c5cnn(C)c5)c(C(F)F)cc34)nc(C3CC3)n2CC1=O [Example 108, 3-cyclopropyl-1-(3-(difluoromethyl)-2-(1-methyl-1H-pyrazol-4-yl)quinolin-5-yl)-7-methyl-7,8-dihydroimidazo[1,5-a] pyrazin-6(5H)-one] | 0.114 | 18.3 |
| Cn1cc(-c2cc3cccc(-c4nc(C5CC5)n5c4CN(CCO)C(=O)C5)c3cn2)cn1 [Example 6, 3-Cyclopropyl-7-(2-hydroxyethyl)-1-(3-(1-methyl-1H-pyrazol-4-yl)isoquinolin-8-yl)-7,8-dihydroimidazo[1,5-a]pyrazin-6(5H)-one] | 2.25 | 25 |
| Cc1ccc2cc(-c3ccn(C)n3)ncc2c1-c1nc(C2CCOCC2)n2c1CN(C)C(=O)C2C (stereo not shown) [Example 105, 5,7-dimethyl-1-(7-methyl-3-(1-methyl-1H-pyrazol-3-yl)isoquinolin-8-yl)-3-(tetrahydro-2H-pyran-4-yl)-7,8-dihydroimidazo[1,5-a] pyrazin-6(5H)-one] | 0.027 | 3.48 |
